These results are taken from paper PMC9430770 (Microbiology Spectrum, 2022).

One assay deals with C. albicans. As to the kind of experiment: Treatment in liquid YP medium with different carbon sources, then spotting on solid YPD. The assay is classed as cell-based, Candida albicans. The following applies: 128 μg/mL BE, 48 h. The text has this:
FIG 2 Eno1 is a target of BE. (A) Schematic diagram of synthesis label-BE. Label-BE is synthesized by intermediate TPD-10a with benzyl bromide structure and triacetylated BE. (B) The molecular structure of label-BE. Label-BE contains a trifluoromethylphenyl diazo heterocyclic propylene group (marked by a red dotted line) as a photoaffinity group to enhance the binding of label-BE to its target proteins and an alkyne group (marked by a blue dotted line) connected with an azide group (from the TAMRA-N3 or biotin-N3) by a copper-catalyzed azide-alkyne cycloaddition. (C) The molecular structures of TAMRA-N3 and biotin-N3. Both of them contain azide groups (marked by a blue dotted line) connected with an alkyne group of label-BE to highlight the target proteins of label-BE. (D) The competition experiment with BE and label-BE used the TAMRA-N3 as a reporter. C. albicans cell lysates were preincubated with 100 μM BE (lane 2) or not (lane 3). Subsequently, the two groups were incubated with 10 μM label-BE and irradiated with UV light at 365 nm and then treated with TAMRA-N3. After separation of SDS-PAGE, label-BE-targeted proteins were visualized by in-gel fluorescence scanning. The three fluorescent bands in lane 3 (indicated by red triangles) were cut out and pooled and then analyzed by LC-MS/MS. (E) The competition experiment with BE and label-BE used the biotin-N3 as a reporter. In the following enrichment with streptavidin-conjugated beads and separation by SDS-PAGE gel, targets of label-BE were visualized by Coomassie blue staining. The brighter band in lane 3 (indicated by red triangle) was then cut out and analyzed by LC-MS/MS. […] C. albicans cells were first treated with 128 μg/mL BE in liquid YP medium with either 3-PG (32 mg/mL), pyruvate (32 mg/mL), glucose (20 mg/mL), or glycerol (2% [vol/vol]) for 48 h and then were spotted (1:10 dilution) onto solid YPD medium and photographed after 48 h of incubation at 30°C. The red termination line represents inhibition; 3-PG, 3-phosphoglyceric acid. (G) The competition experiment with BE and label-BE used the TAMRA-N3 as a reporter by E. coli cell lysates containing recombinant C. albicans Eno1.
In order to further identify which glycolysis-related protein is the target of BE, we investigated the antifungal activity of BE in the media containing different intermediate products of glycolysis. 3-Phosphoglyceric acid (3-PG) is a downstream intermediate of Pgk1-catalyzed glycolysis but an upstream intermediate of Eno1-catalyzed glycolysis, while pyruvate is a downstream intermediate of Eno1-catalyzed glycolysis (Fig. 2F). […]

Assay [1] has as its target T1, recombinant C. albicans Eno1 (Candida albicans, UniProt P30575).
T1 construct: the full-length ENO1 gene from C. albicans was cloned into the pET-21a (+) plasmid; made in house; host or cells: E. coli BL21(DE3)
As to the kind of experiment: Target protein competition experiment between BE and label-BE (TAMRA-N3 reporter). The following applies: preincubation with 100 μM BE, then 10 μM label-BE; E. coli lysates with recombinant CaEno1. It is filed as binding. The text has this:
FIG 2 Eno1 is a target of BE. (A) Schematic diagram of synthesis label-BE. Label-BE is synthesized by intermediate TPD-10a with benzyl bromide structure and triacetylated BE. (B) The molecular structure of label-BE. Label-BE contains a trifluoromethylphenyl diazo heterocyclic propylene group (marked by a red dotted line) as a photoaffinity group to enhance the binding of label-BE to its target proteins and an alkyne group (marked by a blue dotted line) connected with an azide group (from the TAMRA-N3 or biotin-N3) by a copper-catalyzed azide-alkyne cycloaddition. (C) The molecular structures of TAMRA-N3 and biotin-N3. […] After separation of SDS-PAGE, label-BE-targeted proteins were visualized by in-gel fluorescence scanning. The three fluorescent bands in lane 3 (indicated by red triangles) were cut out and pooled and then analyzed by LC-MS/MS. […] The brighter band in lane 3 (indicated by red triangle) was then cut out and analyzed by LC-MS/MS. […]
Target protein competition experiments between BE and label-BE were performed as described previously ([51], [52]). […] The bands with changes in fluorescence brightness were then cut off and analyzed by LC-MS/MS; for labeling label-BE with biotin-N3, protein solutions were enriched with streptavidin-conjugated beads. […]

Another assay has as its target T2, hEno1 (Homo sapiens, UniProt P06733).
T2 construct: 6xHis; made in house; host or cells: E. coli BL21(DE3), inferred from 'same procedure' as CaEno1
Briefly: Enolase activity analysis (absorbance at 240 nm of PEP). The assay is classed as biochemical.

SMILES strings stand for the structures.

T2 sequence (P06733 whole entry): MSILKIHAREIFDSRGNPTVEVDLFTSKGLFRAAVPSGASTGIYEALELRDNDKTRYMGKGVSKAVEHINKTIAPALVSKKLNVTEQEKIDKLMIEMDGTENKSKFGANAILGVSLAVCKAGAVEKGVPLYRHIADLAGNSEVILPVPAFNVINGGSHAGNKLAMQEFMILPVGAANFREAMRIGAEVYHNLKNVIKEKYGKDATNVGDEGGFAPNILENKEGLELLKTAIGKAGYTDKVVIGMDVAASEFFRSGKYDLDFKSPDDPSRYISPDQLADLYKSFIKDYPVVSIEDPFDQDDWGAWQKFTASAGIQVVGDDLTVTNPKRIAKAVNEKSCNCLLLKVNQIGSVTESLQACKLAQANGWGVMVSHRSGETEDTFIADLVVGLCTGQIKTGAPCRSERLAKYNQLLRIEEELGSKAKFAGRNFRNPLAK
T1 sequence (P30575 whole entry): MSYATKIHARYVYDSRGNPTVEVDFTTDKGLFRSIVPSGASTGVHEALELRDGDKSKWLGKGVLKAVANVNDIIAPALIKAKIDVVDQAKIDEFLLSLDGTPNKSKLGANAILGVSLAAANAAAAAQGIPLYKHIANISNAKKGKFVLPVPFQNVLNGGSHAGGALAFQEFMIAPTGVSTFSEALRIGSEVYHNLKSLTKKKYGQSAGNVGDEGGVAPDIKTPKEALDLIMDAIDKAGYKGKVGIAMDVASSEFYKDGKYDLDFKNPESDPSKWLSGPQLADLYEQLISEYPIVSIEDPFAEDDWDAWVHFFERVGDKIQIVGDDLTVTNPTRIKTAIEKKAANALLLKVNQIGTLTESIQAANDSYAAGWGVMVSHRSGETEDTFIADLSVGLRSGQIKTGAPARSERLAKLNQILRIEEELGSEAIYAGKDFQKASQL
Protocol for hEno1: Enolase activity was determined by direct spectrophotometric assay via measuring the increase of absorbance at 240 nm of phosphoenolpyruvate (PEP) as described previously with some modifications ([54]). Briefly, the reaction buffer (pH 7.0) containing 10 mM imidazole, 200 mM KCl, and 0.5 mM MgAc in a final reaction volume of 100 μL was mixed with Eno1 (a final concentration of 30 nM), followed by the mixture of 2-phosphoglycerate (2-PG) (Yuanye Biotech Shanghai) with a final concentration of 1 mM. The enolase activity of Eno1 was evaluated by measuring the increase of absorbance (OD240) at room temperature for 10 min. […] The well-known enolase inhibitor sodium fluoride (NaF; Sangon Biotech) was initiated from 5 mM and used as a control ([29]). Inhibition curves were fitted by nonlinear regression (four parameters) using the GraphPad Prism software.

For orientation: IC50 means the concentration that inhibits the measured activity by half. The low end stands for higher potency, the high end for lower potency. Take `O=c1cc(-c2ccccc2)oc2cc(O)c(O)c(O)c12` [BE, Baicalein]: the antifungal activity result is given as “strong antifungal activity” in the assay with C. albicans (liquid YP medium with 3-PG (32 mg/mL)), “strong antifungal activity” with C. albicans (liquid YP medium with glucose (20 mg/mL)), “no antifungal activity” with C. albicans (liquid YP medium with glycerol (2% vol/vol)) and “no antifungal activity” in the assay with C. albicans (liquid YP medium with pyruvate (32 mg/mL)). Also, in assay [1], the “competition with label-BE for the CaEno1 band (in-gel fluorescence)” value is given as “remarkably reduce the fluorescent brightness”. On hEno1, half-maximal inhibition (IC50) was put at 91.3 ± 3.1 µM.
